Reference: patent publication US9895375B2, “Compositions containing riboflavin and sesamin-class compounds” (SUNTORY HOLDINGS LIMITED, priority 2006, dated 2018)

Assays:
Wistar male rats = assay: acetic acid writhing test; type: in vivo
Protocol: A test on analgesic action was conducted by a partly modified version of the acetic acid writhing test of Moon et. al. (Biol. Pharm. Bull. (2005)). The specific test method was as follows. […] Three days before the acetic acid writhing test, the rats were divided into three groups each consisting of 6 heads; the control group was orally administered through a tube with olive oil at a dose of 5 ml/kg whereas the remaining two groups were administered with sesamin-class compounds (sesamin/episesamin mixture; sesamin: episesamin (weight ratio)=5:5) as they were dissolved in olive oil at respective doses of 50 mg/kg and 100 mg/kg. Subsequently, administration was similarly performed two days before the test and on the day before the test, two administrations were effected, one in the morning and the other in the evening; thus, a total of four administrations were effected. On the day of testing, rats that had been fasted overnight from the previous night were orally administered with 5 ml/kg of physiological saline and one hour later, they were administered intraperitoneally with 1 ml/170 g of physiological saline containing 1% acetic acid and immediately after this administration, the number of writhing movements the animals made for 30 minutes right after the administration was counted. […]

male Balb/b mice = assay: water immersion sleep deprivation test (weighted swimming time); type: in vivo; settings: Example 3, FIG. 4; riboflavin 25 or 50 mg/kg (riboflavin equivalent), sesamin 50 mg/kg, p.o. once a day for 2 days of water immersion
Protocol: That is, by measuring the swimming time in a water-immersion sleep deprivation test. A mouse, kept in such an environment as water immersion that they are unable to have a sufficient sleep or resting position to rest physically or mentally, is forced to swim under the stress of a weight and the time it takes to have its nose submerged in the water for at least 10 seconds is measured to determine the degree of its fatigue. Since this animal model is a physical and mental fatigue model, if the administration of a test substance prolongs the swimming time, it is confirmed that the model has resistance to fatigue, as exemplified by prevention or amelioration of physical and mental fatigue and the accompanying distress such as muscular pain, an increase in physical strength that helps prolong the time to exhaustion, and maintenance of physical vigor in a fatigued state.
The effect against fatigue was evaluated by a water immersion sleep deprivation test. […]
After two days of water immersion, the mice were allowed to swim with a weight attached to each of their tails having a mass equivalent to 8% of their body weight, and the time they took to have their nose submerged in water for at least 10 seconds was measured.
The anti-fatigue action due to riboflavin and a sesamin-class compound(s) was measured as in Example 3, except that the mice were divided into six groups as shown in Table 2.

[1] = perorally, 1 to 50 mg/kg; no further rise up to 75 mg; cited from earlier work
[2] = intraperitoneally, 3 to 100 mg/kg; cited from earlier work
[3] = ingested in high doses; cited from earlier work

Compound: Cc1cc2nc3c(=O)[nH]c(=O)nc-3n(C[C@H](O)[C@H](O)[C@H](O)COP(=O)(O)O)c2cc1C [riboflavin, riboflavin sodium phosphate]
- number of writhing movements versus control group (Olive+Saline) (Wistar male rats; Example 1, FIG. 2, vitamin B2 30 mg/kg riboflavin equivalent p.o. alone): tendency to make a smaller number of writhing movements than the control group
- suppression of number of writhing movements compared with control group (Olive+Saline) (Wistar male rats; Example 2, FIG. 3, vitamin B2 30 mg/kg riboflavin equivalent p.o., sesamin-class compounds 100 mg/kg p.o. x4 in the combination): 10.5%
- suppression of the shortening of the swimming time (anti-fatigue action) (male Balb/b mice): suppressed in the shortening of the swimming time
- analgesic effect in a formaldehyde test [1]: peaked at 25 mg
- analgesic action against inflammatory pain [2]: showed an analgesic action against inflammatory pain in a dose-dependent fashion
- effect against pain in the nervous system [2]: ineffective
- migraine prophylaxis [3]: effective for migraine prophylaxis
